Results on three compounds are retold here after paper PMC9782245, “Synthesis and Structural Optimization of 2,7,9-Trisubstituted purin-8-ones as FLT3-ITD Inhibitors” (International Journal of Molecular Sciences, 2022).

Data set [1] deals with T1, STK16 (Homo sapiens, UniProt O75716).
T1 construct: purchased Eurofins Discovery (France)
Description: Kinase selectivity panel at 1 µM (Eurofins), STK16. The conditions noted are these: read-out: residual enzyme activity STK16. The format is biochemical. Here is the method: (§1) Three representative compounds (14d, 14e, and 15a) were profiled in a 1 µM concentration against 30 kinases that were selected as known off-targets of approved CDK4/6 inhibitors. […] Additional sensitive kinases include STK16, EphA1, MEKK2, SRC, and MER (≤10% of residual enzyme activities), which are not targets of the structurally similar CDK4/6 inhibitor, trilaciclib. We also screened compound 15a, an analogue of 14d, bearing isopropyl at position 7 of the purine instead of the methyl group. This change rapidly diminished the potency against CDK4 (dropped to 90% of residual enzyme activity), but the preference for FLT3 remained (1st rank) (Figure 2).
(§2) CDK/cyclin complexes and FLT3 kinases were assayed as previously described. Protein kinase selectivity was evaluated at a single concentration (1 µM) by screening against 30 enzymes at Eurofins Discovery (France).

In data set [2] the target is T2, MER (Homo sapiens, UniProt Q12866).
T2 construct: purchased Eurofins Discovery (France)
T2 sequence (Q12866 21-999): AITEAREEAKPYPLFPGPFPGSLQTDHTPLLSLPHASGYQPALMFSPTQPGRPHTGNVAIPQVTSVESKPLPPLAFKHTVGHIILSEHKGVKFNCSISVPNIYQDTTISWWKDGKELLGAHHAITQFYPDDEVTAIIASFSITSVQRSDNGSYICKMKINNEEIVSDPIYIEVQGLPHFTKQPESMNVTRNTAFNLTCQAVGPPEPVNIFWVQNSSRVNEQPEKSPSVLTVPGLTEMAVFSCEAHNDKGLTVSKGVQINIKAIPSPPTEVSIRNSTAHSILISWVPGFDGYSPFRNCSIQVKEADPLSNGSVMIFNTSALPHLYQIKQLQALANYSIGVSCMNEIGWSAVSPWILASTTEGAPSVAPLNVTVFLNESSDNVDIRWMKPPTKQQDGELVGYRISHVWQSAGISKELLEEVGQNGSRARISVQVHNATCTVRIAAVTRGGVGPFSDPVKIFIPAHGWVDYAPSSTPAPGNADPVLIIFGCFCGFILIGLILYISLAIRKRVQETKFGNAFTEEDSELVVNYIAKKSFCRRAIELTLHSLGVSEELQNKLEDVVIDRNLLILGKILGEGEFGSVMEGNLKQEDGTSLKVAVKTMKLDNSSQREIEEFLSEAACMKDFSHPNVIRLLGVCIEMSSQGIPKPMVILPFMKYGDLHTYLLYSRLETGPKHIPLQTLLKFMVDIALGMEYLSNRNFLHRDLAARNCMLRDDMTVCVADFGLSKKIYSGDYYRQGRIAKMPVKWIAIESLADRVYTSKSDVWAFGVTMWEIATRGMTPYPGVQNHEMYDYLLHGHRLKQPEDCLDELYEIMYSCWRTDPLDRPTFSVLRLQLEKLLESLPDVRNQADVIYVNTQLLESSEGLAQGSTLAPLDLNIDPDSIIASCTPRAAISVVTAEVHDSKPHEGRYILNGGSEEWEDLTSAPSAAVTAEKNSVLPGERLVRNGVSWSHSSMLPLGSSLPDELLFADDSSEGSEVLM
Description: Kinase selectivity panel at 1 µM (Eurofins), MER. Format: biochemical. The following applies: read-out: residual enzyme activity MER. Here is the method:
as §1, §2

A short description of data set [3]: Stability studied on Caco-2 cells. Format: in vitro ADME. The following applies: in comparison with trilaciclib.
Data set [4] has as its target T3, Lyn (Homo sapiens, UniProt P07948).
T3 construct: purchased Eurofins Discovery (France)
Put plainly: Kinase selectivity panel at 1 µM (Eurofins), Lyn. The following applies: read-out: residual enzyme activity Lyn. The format is biochemical. Here is the method:
as §1, §2

The test system of data set [5] is MV4-11 cells. Description: Flow cytometric cell cycle analysis, MV4-11. The format is cell-based, Human. The following applies: increasing doses, 24 h. Here is the method:
FLT3 inhibition causes G1-cell cycle arrest in FLT3-dependent cell lines such as MV4-11; we, therefore, performed flow cytometric analysis to evaluate cell cycle changes in MV4-11 and K562 cell lines treated with 200 nM compounds for 24 h. […] Specifically, 18 compounds arrested >85% of cells in the G1 phase, which is >30% cells in the G1 phase of the cell cycle than in control cells (Figure 4A).
(§3) Finally, we performed flow cytometric analysis with different concentrations of 15a in MV4-11 and MOLM13 (another FLT-ITD positive cell line) and K562 cell lines treated for 24 h (Figure 5).
(§4) Asynchronously growing cells were seeded into a 96-well plate and, after a preincubation period, treated with tested compounds for 24 h. The treated cells were stained directly (or after trypsinization for the adherent cells) with the 5× staining solution (17 mM trisodium citrate dihydrate, 0.5% IGEPAL CA-630, 7.5 mM spermine tetrahydrochloride, and 2.5 mM Tris; pH 7.6 containing […] propidium iodide). After the staining, DNA content was analyzed using flow cytometry using a 488 nm laser (BD FACS Verse with software BD FACSuite^TM, version 1.0.6). Cell cycle distribution was analyzed using ModFit LT (Verity Software House, version 5.0). Palbociclib, trilaciclib, and quizartinib were purchased from MedChemExpress, Monmouth Junction, NJ, USA.
(A flow cytometer gives signals particle by particle.)

Data set [6] relates to MOLM13 cells. Description: Flow cytometric cell cycle analysis, MOLM13. The format is cell-based. The following applies: increasing doses, 24 h. Here is the method:
as §3
as §4, with “5.0).” for “5.0). Palbociclib, trilaciclib, and quizartinib were purchased from MedChemExpress, Monmouth Junction, NJ, USA.”

In data set [7] the target is T4, Abl (Homo sapiens, UniProt P00519).
T4 construct: purchased Eurofins Discovery (France)
Put plainly: Kinase selectivity panel at 1 µM (Eurofins), Abl. Format: biochemical. The following applies: read-out: residual enzyme activity Abl. Here is the method:
as §1, §2

The subject of data set [8] is MV4-11 xenograft. Put plainly: MV4-11 subcutaneous xenograft model in NSG mice. The conditions noted are these: 20 mg/kg, daily i.p. The format is in vivo. An excerpt: Finally, we tested the in vivo activity of 15a in a model of AML based on subcutaneous xenotransplantation of MV4-11 cells in immunodeficient mice.
The experimental design was approved by the Institutional Animal Care and Use Committee (MSMT-37334/2020-4). Immunodeficient adult female NOD.Cg-Prkdc^scidIl2rg^tm1Wjl/SzJ mice (referred to as NSG mice) were purchased from The Jackson Laboratory and preserved in a pathogen-free environment in individually ventilated cages, provided with sterilized food and water. NSG mice were subcutaneously inoculated with 10 × 10^6 leukemia cells. […] Each cohort contained 6 animals. Three perpendicular dimensions (in millimeters) were measured daily with a digital caliper and tumor volumes were calculated using the following formula: π/6 × length × width × height. An experiment was terminated (and mice euthanized) when tumors exceeded 20 mm in the largest diameter.

Each structure is given as a SMILES string.

T1 sequence (O75716 whole entry): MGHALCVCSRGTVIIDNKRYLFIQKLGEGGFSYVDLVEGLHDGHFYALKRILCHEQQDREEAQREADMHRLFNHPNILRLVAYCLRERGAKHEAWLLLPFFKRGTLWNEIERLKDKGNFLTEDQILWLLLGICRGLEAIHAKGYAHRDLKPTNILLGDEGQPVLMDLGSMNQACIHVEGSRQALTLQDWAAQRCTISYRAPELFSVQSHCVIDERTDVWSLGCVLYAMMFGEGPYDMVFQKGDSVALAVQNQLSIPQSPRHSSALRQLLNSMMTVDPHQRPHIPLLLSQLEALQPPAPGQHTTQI
T4 sequence (P00519 whole entry): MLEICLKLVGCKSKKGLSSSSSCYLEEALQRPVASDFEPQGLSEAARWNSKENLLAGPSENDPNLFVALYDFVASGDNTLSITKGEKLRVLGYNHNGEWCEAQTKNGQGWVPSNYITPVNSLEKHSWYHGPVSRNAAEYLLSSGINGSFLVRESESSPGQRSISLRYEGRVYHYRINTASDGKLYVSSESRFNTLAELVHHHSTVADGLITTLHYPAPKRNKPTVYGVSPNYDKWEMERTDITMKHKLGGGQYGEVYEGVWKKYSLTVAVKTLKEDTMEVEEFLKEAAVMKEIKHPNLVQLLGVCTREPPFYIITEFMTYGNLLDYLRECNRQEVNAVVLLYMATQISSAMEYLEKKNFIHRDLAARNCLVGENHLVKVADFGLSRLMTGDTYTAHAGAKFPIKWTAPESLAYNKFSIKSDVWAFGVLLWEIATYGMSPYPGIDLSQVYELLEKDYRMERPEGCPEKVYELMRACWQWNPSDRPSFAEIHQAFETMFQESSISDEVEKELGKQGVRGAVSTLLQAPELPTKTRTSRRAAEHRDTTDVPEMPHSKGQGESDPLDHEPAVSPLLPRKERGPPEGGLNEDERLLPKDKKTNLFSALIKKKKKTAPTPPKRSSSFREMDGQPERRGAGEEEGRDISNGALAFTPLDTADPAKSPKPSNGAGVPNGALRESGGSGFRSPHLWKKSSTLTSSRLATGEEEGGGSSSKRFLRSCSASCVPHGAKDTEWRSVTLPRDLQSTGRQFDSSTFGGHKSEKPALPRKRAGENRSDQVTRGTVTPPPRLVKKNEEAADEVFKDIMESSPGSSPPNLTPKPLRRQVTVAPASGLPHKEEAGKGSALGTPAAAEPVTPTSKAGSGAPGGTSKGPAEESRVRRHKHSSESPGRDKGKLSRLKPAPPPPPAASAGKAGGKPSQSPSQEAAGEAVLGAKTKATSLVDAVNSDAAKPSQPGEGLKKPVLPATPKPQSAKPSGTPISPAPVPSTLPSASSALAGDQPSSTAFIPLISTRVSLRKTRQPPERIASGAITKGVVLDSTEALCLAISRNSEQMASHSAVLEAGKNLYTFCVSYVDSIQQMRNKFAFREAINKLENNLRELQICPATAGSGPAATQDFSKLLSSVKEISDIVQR
T3 sequence (P07948 whole entry): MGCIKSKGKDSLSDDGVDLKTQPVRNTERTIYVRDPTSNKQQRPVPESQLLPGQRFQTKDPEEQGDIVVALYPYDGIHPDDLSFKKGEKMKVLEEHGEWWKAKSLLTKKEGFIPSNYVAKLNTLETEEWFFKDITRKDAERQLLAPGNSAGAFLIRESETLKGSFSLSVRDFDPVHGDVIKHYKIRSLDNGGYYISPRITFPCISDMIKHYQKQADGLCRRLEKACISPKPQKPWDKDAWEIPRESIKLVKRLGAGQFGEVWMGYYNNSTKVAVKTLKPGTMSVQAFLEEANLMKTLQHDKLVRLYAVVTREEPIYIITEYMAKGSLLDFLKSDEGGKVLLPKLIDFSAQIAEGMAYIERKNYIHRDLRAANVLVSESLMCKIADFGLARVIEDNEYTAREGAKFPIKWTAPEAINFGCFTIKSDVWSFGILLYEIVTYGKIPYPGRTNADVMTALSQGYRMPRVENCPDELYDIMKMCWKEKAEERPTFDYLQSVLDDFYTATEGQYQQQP

Usually melting point stands for the temperature of the solid-liquid transition. In turn, `Cn1c(=O)n(C2CCCC2)c2nc(Nc3ccc(N4CCNCC4)cc3)ncc21` [14d] had a melting point of 110 to 112 °C. Moreover, the remaining activity at 1 µM in data set [1] was not above 10%. In addition, the remaining activity at 1 µM in data set [2] was not above 10%.

For the compound `Cn1c(=O)n(C2CCCCC2)c2nc(Nc3ccc(N4CCNCC4)cc3)ncc21` [14e], the “stability (Caco-2 cells)” value in data set [3] is reported as “substantially higher stability”. In addition, the remaining activity at 1 µM in data set [1] and in [2] was not above 10% each time.

For `CC(C)n1c(=O)n(C2CCCC2)c2nc(Nc3ccc(N4CCNCC4)cc3)ncc21` [15a, 9-cyclopentyl-7-isopropyl-2-((4-(piperazin-1-yl)phenyl)amino)-7,9-dihydro-8H-purin-8-one], the remaining activity at 1 µM in [4] and in [7] was not above 10% each time. In addition, in data set [5], the “cells in the G1 phase, MV4-11” value is reported as “up to 90%”. Besides, the “cells in the G1 phase, MOLM13” value in data set [6] is on record as “up to 90%”. For the same compound, the “mice weight during therapy” value in data set [8] is listed as “no significant reduction in mice weight”. Further, the “growth of xenografted MV4-11 cells” value in [8] (7 days, vs vehicle) was “significant reduction in the growth”.
